Source: patent US20210255193A1, “LYSINE REACTIVE PROBES AND USES THEREOF” (The Scripps Research Institute, priority 2017, published 2021)

How the values were obtained:
Assay type in all cases: biochemical
PNPO [1] = molecular target: T1, PNPO (Homo sapiens, UniProt Q9NVS9); experiment: PNPO functional assay; conditions: substrate assay, WT; read-out: IC50, blockade of PNPO catalytic activity
T1 construct: Flag; expressed in transfected cells; host or cells: HEK 293T, transient transfection, soluble lysate
T1 sequence (Q9NVS9 1-261): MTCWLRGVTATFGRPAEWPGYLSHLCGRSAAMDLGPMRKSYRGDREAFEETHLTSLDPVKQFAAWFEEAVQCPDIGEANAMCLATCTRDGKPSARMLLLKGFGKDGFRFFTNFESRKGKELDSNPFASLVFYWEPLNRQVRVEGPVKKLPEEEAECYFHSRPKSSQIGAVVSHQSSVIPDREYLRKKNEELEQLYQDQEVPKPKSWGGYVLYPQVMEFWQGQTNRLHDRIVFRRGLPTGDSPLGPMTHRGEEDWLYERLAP
Procedure: (§1) PNPO functional assay. 80 μl of soluble proteome (total protein concentration: 1 mg ml^−1) from HEK 293T cells expressing PNPO (WT or K100R mutant) or mock transfected cells (empty vector; negative control) were added into a clear bottom 384 well plate. For compound treatments, 1 μl of the inhibitor (80× solution in DMSO) or 1 μl of DMSO (positive control) were added and the reactions were incubated for 1 h at room temperature. 10 μl of 0.1 M Tris in PBS were added and the reaction was started by addition of 10 μl 5 mM pyridoxine phosphate (PNP) in water (PNP was prepared as described in Argoudelis, C. J., “Preparation of crystalline pyridoxine 5′-phosphate and some of its properties,” J. Agr. Food Chem. 34, 995-998 (1986)). The absorbance of the Schiff Base between pyridoxal phosphate and Tris was measured at 388 nm every minute for 30 min.
(§2) Calculation of relative activity or percent inhibition. For PNPO, PFKP, NUDT2 and G6PD, the slope of the linear regression of the linear portion of the absorbance or fluorescence over time was used as measure their activity. Apparent activity was calculated relative to the WT. Percent inhibition was calculated relative to the positive and negative control and used to calculate IC50 values by nonlinear regression analysis from a dose-response curve generated using GraphPad Prism 7.

PNPO [2] = molecular target: T2, PNPO (Homo sapiens, UniProt Q9NVS9, K100R); experiment: PNPO functional assay; conditions: K100R mutant
T2 construct: Flag; expressed in transfected cells; host or cells: HEK 293T, transient transfection, soluble lysate
Procedure: as §1, §2

PFKP [3] = molecular target: T3, PFKP (Homo sapiens, UniProt Q01813, K688R); experiment: PFKP functional assay; conditions: K688R mutant
T3 construct: Flag; expressed in transfected cells; host or cells: HEK 293T, transient transfection, soluble lysate; cDNA clone 5180268 (Dharmacon)
Procedure: (§3) PFKP functional assay. For inhibitor experiments, 50 μl of soluble proteome (initial total protein concentration: 1 mg ml^−1) from HEK 293T cells expressing PFKP (WT or K688R mutant) or mock transfected cells (empty vector; negative control) were incubated with 1 μl 50× of the compound in DMSO or DMSO for the positive or negative control for 1 h at room temperature. Lysates were diluted 40× with dilution buffer (PBS containing 0.2 mg ml^−1 BSA and 5 mM MgCl2) and 40 μl were added into a clear bottom 384 well plate. 10 μl of a mixture of 3.5 μl PBS, 2.5 μl fructose-6-phosphate (100 mM), 1 μl NADH (20 mM), 1 μl ATP (50 mM), 1 μl aldolase (50 U ml^−1) and 1 μl GDH/TPI (500 U ml^−1 TPI, 50 U ml^−1 GDH) were added to start the reaction. The absorbance of NADH was measured at 340 nm every minute for 30 min.
as §2

PFKP [4] = molecular target: T4, PFKP (Homo sapiens, UniProt Q01813); experiment: PFKP functional assay; conditions: WT-PFKP
T4 construct: Flag; expressed in transfected cells; host or cells: HEK 293T, transient transfection, soluble lysate; cDNA clone 5180268 (Dharmacon)
T4 sequence (Q01813 1-784): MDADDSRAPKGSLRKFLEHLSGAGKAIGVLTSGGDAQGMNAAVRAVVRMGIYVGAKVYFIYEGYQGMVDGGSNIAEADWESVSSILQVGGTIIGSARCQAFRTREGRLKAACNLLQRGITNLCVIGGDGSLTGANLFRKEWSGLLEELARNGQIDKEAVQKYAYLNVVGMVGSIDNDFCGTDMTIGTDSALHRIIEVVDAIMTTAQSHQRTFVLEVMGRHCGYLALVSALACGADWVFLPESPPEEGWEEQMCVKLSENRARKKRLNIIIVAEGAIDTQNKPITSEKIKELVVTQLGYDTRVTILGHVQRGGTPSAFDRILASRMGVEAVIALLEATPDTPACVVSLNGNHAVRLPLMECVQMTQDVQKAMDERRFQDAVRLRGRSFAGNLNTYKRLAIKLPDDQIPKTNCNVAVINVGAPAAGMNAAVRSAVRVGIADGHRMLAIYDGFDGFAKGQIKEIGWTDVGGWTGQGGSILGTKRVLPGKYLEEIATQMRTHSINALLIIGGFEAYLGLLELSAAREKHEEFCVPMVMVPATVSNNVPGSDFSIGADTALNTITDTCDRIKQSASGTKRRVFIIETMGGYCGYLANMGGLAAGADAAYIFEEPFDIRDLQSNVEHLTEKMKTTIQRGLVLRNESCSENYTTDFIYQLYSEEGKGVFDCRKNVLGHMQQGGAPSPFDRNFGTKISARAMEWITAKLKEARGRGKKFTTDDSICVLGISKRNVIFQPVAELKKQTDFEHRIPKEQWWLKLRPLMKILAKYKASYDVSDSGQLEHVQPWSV
Procedure: as §3, §2

T2 sequence (Q9NVS9 whole entry K100R): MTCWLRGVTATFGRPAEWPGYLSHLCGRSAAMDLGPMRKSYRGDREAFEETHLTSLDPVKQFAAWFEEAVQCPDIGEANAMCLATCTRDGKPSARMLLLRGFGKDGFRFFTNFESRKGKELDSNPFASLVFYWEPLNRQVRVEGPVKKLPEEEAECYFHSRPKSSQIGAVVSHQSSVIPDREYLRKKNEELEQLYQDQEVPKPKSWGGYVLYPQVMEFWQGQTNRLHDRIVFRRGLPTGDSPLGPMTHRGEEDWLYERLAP
T3 sequence (Q01813 whole entry K688R): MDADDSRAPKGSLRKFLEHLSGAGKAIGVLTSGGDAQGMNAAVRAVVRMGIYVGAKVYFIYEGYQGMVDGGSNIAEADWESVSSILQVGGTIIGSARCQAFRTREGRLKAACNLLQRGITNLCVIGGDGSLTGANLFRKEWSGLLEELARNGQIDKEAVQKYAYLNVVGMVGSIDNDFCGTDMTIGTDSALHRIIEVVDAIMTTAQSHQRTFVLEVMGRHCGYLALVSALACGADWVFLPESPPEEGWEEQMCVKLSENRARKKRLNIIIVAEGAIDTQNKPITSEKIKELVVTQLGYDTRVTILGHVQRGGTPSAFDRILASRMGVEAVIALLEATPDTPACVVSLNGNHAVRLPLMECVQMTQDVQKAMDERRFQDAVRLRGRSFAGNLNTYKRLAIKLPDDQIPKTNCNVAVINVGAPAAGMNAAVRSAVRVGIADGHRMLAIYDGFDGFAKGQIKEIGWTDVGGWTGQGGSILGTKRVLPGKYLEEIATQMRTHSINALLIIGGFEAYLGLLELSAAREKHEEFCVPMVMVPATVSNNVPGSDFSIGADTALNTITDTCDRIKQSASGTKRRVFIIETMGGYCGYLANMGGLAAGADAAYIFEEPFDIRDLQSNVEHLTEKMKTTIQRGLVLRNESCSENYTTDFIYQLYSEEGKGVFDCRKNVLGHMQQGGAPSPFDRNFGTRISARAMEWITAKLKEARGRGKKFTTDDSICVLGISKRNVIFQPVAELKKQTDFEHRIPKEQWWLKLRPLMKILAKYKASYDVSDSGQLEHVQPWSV

| SMILES | IC50 (PNPO [1]) [µM] | inhibitory effect on K100R mutant of PNPO (PNPO [2]) | inhibition of K688R-PFKP mutant activity (PFKP [3]) | IC50 (PFKP [4]; enzyme-coupled assay, read-out: apparent IC50, inhibition of PFKP activity) [µM] | maximal inhibitory effect, reduction in substrate turnover (PFKP [4]; plateau) |
| --- | --- | --- | --- | --- | --- |
| O=C(CCc1cn(-c2ccccc2)nc1-c1ccccc1)Oc1c(F)c(F)c(F)c(F)c1F [fragment 19, Pentafluorophenyl 3-(1,3-diphenyl-1H-pyrazol-4-yl)propanoate] | ~5 | not observed |  |  |  |
| O=C(Oc1c(F)c(F)c(F)c(F)c1F)C(c1ccccc1)c1ccccc1 [fragment 20, Pentafluorophenyl 2,2-diphenylacetate] |  |  | not the K688R-PFKP mutant | 2.9 | about 80% |
